What was measured:
[1] = system: advanced solid malignancy
Source text: (§1) During the course of the study patients were reviewed in the clinic every week with toxicity assessment, physical examination, FBC, and serum chemistry. Tumour assessment by imaging was repeated every three cycles. Chest X-ray and ECG were repeated at the end of study.

[2] = system: patients; conditions: first 3 days of a 28-day cycle; ref Schoemaker et al, 2002; cited from earlier work
[3] = system: colon, stomach, pancreas, ovary, breast, lung, and melanoma xenograft models; conditions: preclinical studies; cited from earlier work
[4] = system: patients with advanced solid malignancies; experiment: Phase I dose escalation study: safety, dose-limiting toxicity and MTD; type: in vivo, human
Procedure: This was an open-label nonrandomised dose escalation study, conducted in sequential cohorts of patients from two institutions, Aberdeen Royal Infirmary, Aberdeen, and the Beatson Oncology Centre, Glasgow. It was performed under the auspices of the Cancer Research Campaign, London, with sponsorship by Pharmacia and Upjohn, Milan.
All patients had histologically or cytologically proven advanced solid malignancy that was refractory to conventional therapy. […] All patients gave written informed consent according to local Ethics Committee guidelines.
All doses of the investigational agent are expressed as mg of CPT equivalent. The drug was stored at room temperature. The vials were reconstituted with 10 ml normal saline and the dose to be administered was made up in 100 ml saline in a PVC infusion bag.
Thereafter, dose escalation was to continue according to a modified Fibonacci series. The dose escalation scheme could, however, be modified if considered appropriate based on acquired clinical and pharmacokinetic data. The MTD was defined as the highest dose at which at least three of six patients had dose-limiting toxicity (DLT).
Patients were to be retreated at 28-day intervals for up to six cycles. […] Treatment could be delayed for up to 2 weeks to allow resolution of toxicity.
as §1

[5] = system: patients; conditions: cited from earlier work

copolymer of N-(hydroxypropyl) methacrylamide, (20-O-(N-methacryloyl-glycyl-aminohexanoyl-glycyl)) camptothecin and N-(2-hydroxypropyl) methacryloyl glycinamide [MAG-CPT]
antitumour effect in a patient with renal carcinoma ([1]; 60 mg m^−2, patient had progressive disease with brain metastases): regression of cutaneous metastases was observed
objective antitumour responses ([1]; all dose levels, 23 patients): No objective antitumour responses were seen
antitumour activity [2]: no evidence of antitumour activity
activity in xenograft models [3]: active
patients with grade 2 dysuria and haematuria during cycle 2 ([4]; 200 mg m^−2): one of the eight patients
dose recommended for phase II / further clinical study ([4]; 30-min infusion once every 4 weeks, dose as mg equivalent camptothecin): 200 mg m^−2
nausea and vomiting grade 1 ([4]; dose levels 30–120 mg m^−2): observed sporadically

CC[C@@]1(O)C(=O)OCc2c1cc1n(c2=O)Cc2cc3ccccc3nc2-1 [Camptothecin]
responses in early clinical trials ([5]; colorectal cancer, small bowel carcinoma, and melanoma): responses to CPT were observed
unpredictable and severe toxicity in early clinical trials ([5]; ref Gottlieb et al, 1970, Muggia et al, 1972): myelosuppression, gastrointestinal toxicity, and haemorrhagic cystitis

From PMC2364737, “Phase I and pharmacokinetic (PK) study of MAG-CPT (PNU 166148): a polymeric derivative of camptothecin (CPT)” (British Journal of Cancer, 2004)
